Experimental data from patent US8642632B2, “Selective androgen receptor modulators” (Radius Health, Inc., priority 2010, dated 2014).

Key:
castrated rat = assay: In vivo rat model of androgen and anabolic activity - rat Herschberger assay; settings: 3 mg/kg orally, once daily for 4 days, compared with Sham and testosterone propionate (TP) controls
Description: Organ and muscle weight is on Y-axis and the numbers refer to weight in milligrams. *ρ<0.05 compared to vehicle. ^ρ<0.05 compared to TP and sham.
The following is a typical procedure of the in vivo evaluation of the selective androgens of this invention. In particular, this assay looks primarily at the ability of the selective androgens of this invention to increase muscle size in an immature, castrated rat. In addition, androgenic effects are looked at primarily by weighing the prostate and seminal vesicles. Selective compounds will show a greater increase in the levator ani relative to the prostate and seminal vesicles when compared to testosterone treated, castrated animals or to intact animals that have not been treated. Immature Sprague Dawley male rats were obtained Charles River Laboratories (Stoneridge, N.Y.). All animals were maintained in a temperature and humidity controlled room with a 12 hr light: 12 hr dark cycle, with ad lib access to food (TD 291615, Teklad, Madison, Wis.) and water. Rats were anesthetized and orchidectomized (GDX) or sham surgery (SHAM) was performed. […] The prostate, seminal vesicle and levator ani and bulba cavernous (LABC) tissues were removed, weighed and recorded. Body weights were recorded for each animal at baseline and at sacrifice.

androgen receptor = molecular target: T1, androgen receptor (Rattus norvegicus, UniProt P15207); assay: androgen receptor binding assay (fluorescence polarization, Invitrogen AR-Fluormone)
T1 construct: purchased Invitrogen, Madison, Wis
T1 sequence (P15207 651-902 limits assumed): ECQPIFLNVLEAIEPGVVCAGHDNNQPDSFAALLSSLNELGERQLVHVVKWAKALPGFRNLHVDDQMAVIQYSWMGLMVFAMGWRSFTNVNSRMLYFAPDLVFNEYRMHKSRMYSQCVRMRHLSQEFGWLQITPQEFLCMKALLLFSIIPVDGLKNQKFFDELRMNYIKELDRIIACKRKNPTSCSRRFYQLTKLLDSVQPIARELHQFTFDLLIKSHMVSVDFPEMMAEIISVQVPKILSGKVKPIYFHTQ
Experimental: The assay was performed as specified by the manufacturer (Invitrogen, Madison, Wis.). Briefly, 1 μl of 10 mM compound was added to 500 μl of AR screening buffer in a 1.5 ml eppendorf tube to make a 2×10^−5M stock. 10-fold serial dilutions of the test compounds were prepared ranging in concentration from 10^−5M to 10^−12M. Each dilution was added in triplicate to a black 384-microtiter plate. The test compounds will be diluted 2-fold in the final reaction. 2×AR-Fluormone™ complex was prepared with 2 nM Flourmone AL Green™ and 30 nM AR. 25 μl of 2× complex was aliquoted to each reaction well, such that the final reaction volume was 50 μl per well. Plate was sealed with a foil cover and incubated in the dark at room temperature for 4 h. Polarization values for each well were measured. The polarization values were plotted against the concentration of the test compound. The concentration of the test compound that results in half-maximum shift equals the IC50 of the test compound. As a control, a competition curve for R1881 (methyltrienolone) was performed for each assay. Curve Fitting was performed using GraphPad Prism® software from GraphPad™ Software Inc. Binding data are reported as a single determination if the experiment was run once only and as the average of experiments if the binding experiment was performed two or more times with that compound.
The binding data shown in table 1 (below) is from the result of a single or multiple determinations based on the same compound. Where multiple data points have been taken, the value reported is the average of the multiple determinations.

Compound | levator ani muscle (LABC) weight (castrated rat) | IC50 (androgen receptor) [nM]
Cc1c(N[C@@H](c2nnc(-c3ccc(F)cc3)o2)C(C)(C)O)ccc(C#N)c1Cl [Example 5, (R)-2-chloro-4-(1-(5-(4-fluorophenyl)-1,3,4-oxadiazol-2-yl)-2-hydroxy-2-methylpropylamino)-3-methylbenzonitrile] | significantly above the non-castrated control (Sham) and testosterone propionate-treated (TP) controls | 6
Cc1c(N[C@@H](c2nnc(-c3ccc(F)cc3)o2)C(C)(C)O)ccc(C#N)c1C(F)(F)F [Example 2, (R)-4-(1-(5-(4-fluorophenyl)-1,3,4-oxadiazol-2-yl)-2-hydroxy-2-methylpropylamino)-3-methyl-2-(trifluoromethyl)benzonitrile] |  | 40
CC(C)(O)[C@@H](Nc1ccc(C#N)c(C(F)(F)F)c1)c1nnc(-c2ccc(F)cc2)o1 [Example 1, (R)-4-(1-(5-(4-fluorophenyl)-1,3,4-oxadiazol-2-yl)-2-hydroxy-2-methylpropylamino)-2-(trifluoromethyl)benzonitrile] |  | > 1000
Cc1c(N[C@@H](c2nnc(-c3ccc(C#N)cc3)o2)C(C)(C)O)ccc(C#N)c1Cl [Example 6, (R)-2-chloro-4-(1-(5-(4-cyanophenyl)-1,3,4-oxadiazol-2-yl)-2-hydroxy-2-methylpropylamino)-3-methylbenzonitrile] |  | 4
CCCc1c(N[C@@H](c2nnc(-c3ccc(C#N)cc3)o2)[C@H](C)O)ccc(C#N)c1Cl [Example 4, 2-Chloro-4-((1R,2S)-1-(5-(4-cyanophenyl)-1,3,4-oxadiazol-2-yl)-2-hydroxypropylamino)-3-propylbenzonitrile] |  | 0.3
Cc1c(N[C@@H](c2nnc(-c3ccc(C#N)cc3)o2)C(C)(C)O)ccc(C#N)c1C(F)(F)F [Example 3, (R)-4-(1-(5-(4-cyanophenyl)-1,3,4-oxadiazol-2-yl)-2-hydroxy-2-methylpropylamino)-3-methyl-2-(trifluoromethyl)benzonitrile] |  | 30
Cc1c(N[C@@H](c2nnc(-c3ccc(C#N)cc3)o2)[C@H](O)C(F)(F)F)ccc(C#N)c1Cl [Example 7, 2-chloro-4-((1R,2S)-1-(5-(4-cyanophenyl)-1,3,4-oxadiazol-2-yl)-3,3,3-trifluoro-2-hydroxypropylamino)-3-methylbenzonitrile] |  | 290
